Test results as given in patent US11066443B2 (Hoffmann-La Roche Inc., priority 2017, dated 2021).
pIC50: −log10 of the molar value. In brackets after ≈: the same amount, converted by molar mass.

Legend:
P. aeruginosa ATCC27853 = assay: Antimicrobial susceptibility testing: microbroth minimum inhibitory concentration (MIC) determination; assay type: cell-based; details: Pseudomonas aeruginosa, CLSI microbroth dilution in CAMHB, read after 20 hours, lowest concentration inhibiting >=80% of growth
Protocol: The in vitro antimicrobial activity of the compounds was determined through microbroth minimum inhibitory concentration (MIC) methodology performed according to the Clinical and Laboratory Standard Institute guidelines (CLSI—M07-A9 Jan. 2012. Methods for Dilution Antimicrobial Susceptibility Tests for Bacteria That Grow Aerobically; Approved Standard—Ninth Edition, Clinical and Laboratory Standards Institue, Wayne/PA, US and the CLSI—M100-S24 Jan. 2014. Performance Standards for Antimicrobial Susceptibility Testing; Approved Standard—Fourth Informational Supplement, Clinical and Laboratory Standards Institue, Wayne/PA, US).
The compound stock solution was freshly prepared at 10× the required top concentration for the MIC determination, i.e. at 1280 mg/L, by reconstitution of the dry compound in 50:50 water:DMSO.
Polystyrene non-treated 96 wells microtiter plates were used for preparing panel containing compound serial twofold diluted at two times the final testing concentration (e.g. range from 64 to 0.06 μg/ml) in cation adjusted Mueller Hinton broth medium (CAMHB).
Inoculum was prepared by the “direct colony suspension method”. Colonies of P. aeruginosa ATCC27853 or clinical isolates were suspended in saline solution and adjusted to 0.5 McFarland, diluted 100 times in CAMHB broth and 50 μl added to each well (final concentration of cells ˜5×10^(5) CFU/ml and Final volume/well of 100 μl). Microtiter plates were sealed and incubated at 35±2° C.
MICs values were read after 20 hours of incubation and recorded as the lowest concentration of the antimicrobial that inhibits more or equal to 80% of growth of the organism as detected by the unaided eye and using a microtiter plate optical density reader (OD 600 nm).
Table 1 provides the minimum inhibitory concentration (MIC) in microgram per milliliter of the compounds of present invention obtained against the P. aeruginosa ATCC27853 (Table 1).

P. aeruginosa NCTC11454 = assay: Antimicrobial susceptibility testing: 50% growth inhibitory concentration (IC50) determination; assay type: cell-based; details: Pseudomonas aeruginosa, Iso-Sensitest broth, OD 600 nm every 20 minutes over 16h, growth inhibition during logarithmic growth
Procedure, shortened: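 Twofold dilutions (e.g. 50–0.097 μM final) in Iso-Sensitest broth were inoculated with P. aeruginosa NCTC11454 at ~5×10^5 CFU/mL and incubated at 35±2 °C. OD600 was read every 20 min over 16 h. IC50 was derived from growth inhibition in the logarithmic phase.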

MIC (P. aeruginosa ATCC27853): 32 µg/mL (≈ 40.8 µM) | pIC50 (P. aeruginosa NCTC11454): 4.02
Structure (SMILES): CN1C(=O)[C@H](CCCCN)NC(=O)[C@H](CCCN)NCc2ccccc2Sc2c(Cl)cc(-c3cn(C)cn3)cc2CNC(=O)[C@@H]1Cc1c[nH]c2ccccc12 [Example 37, (12S,15S,18S)-15-(4-Amino-butyl)-18-(3-amino-propyl)-4-chloro-12-(1H-indol-3-ylmethyl)-13-methyl-6-(1-methyl-1H-imidazol-4-yl)-2-thia-10,13,16,19-tetraaza-tricyclo[19.4.0.0*3,8*]pentacosa-1(25),3,5,7,21,23-hexaene-11,14,17-trione]
